Measurements: PubChem BioAssay (NCI)
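Following 48 hours of exposure in 96-well plates, responses at five concentrations were used to interpolate endpoints linearly. Definition used: TGI = concentration required for complete inhibition of growth.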

Tests used:
Assay in all cases: NCI-60 cell line screen, 48 h
TK-10 renal = test system: TK-10 renal
COLO 205 colon = test system: COLO 205 colon
LOX IMVI melanoma = test system: LOX IMVI melanoma
M14 melanoma = test system: M14 melanoma
NCI-H522 lung = test system: NCI-H522 lung
SF-268 CNS = test system: SF-268 CNS
SN12C renal = test system: SN12C renal
PC-3 prostate = test system: PC-3 prostate
SF-539 CNS = test system: SF-539 CNS
MDA-MB-435 = test system: MDA-MB-435

Structure (SMILES)	TGI (TK-10 renal) [µM]	TGI (COLO 205 colon) [µM]	TGI (LOX IMVI melanoma) [µM]	TGI (M14 melanoma) [µM]	TGI (NCI-H522 lung) [µM]	TGI (SF-268 CNS) [µM]	TGI (SN12C renal) [µM]	TGI (PC-3 prostate) [µM]	TGI (SF-539 CNS) [µM]	TGI (MDA-MB-435) [µM]
NCc1cccc(O)c1O	> 100	> 100	> 100	> 100	> 100	> 100	> 100	–	–	–
CC(C)(C)n1c(=O)[nH]c(=O)n1C(C)(C)C	> 100	> 100	> 100	> 100	–	–	> 100	> 100	> 100	–
CN(Cc1cnc2nc(N)nc(N)c2n1)c1ccc(C(=O)NC(CO)CCCO)cc1 (stereo not drawn)	> 100	> 100	> 100	> 100	–	> 100	> 100	> 100	> 100	> 100
c1ccc(/C(=N/Nc2ccncn2)c2ccccn2)cc1	–	–	–	30.5	4.14	50.9	> 100	> 100	> 100	> 100
COc1ccc(OC)c(SC(CC(=O)c2ccccc2)c2ccccc2)c1 (stereo not drawn)	32.7	37.3	–	31	29.2	40.2	40.6	33.9	15.7	26.7
O=[N+]([O-])c1cccc(N=Nc2c(O)c(S(=O)(=O)O)cc3cc(S(=O)(=O)O)ccc23)c1	> 100	> 100	–	> 100	> 100	> 100	> 100	> 100	> 100	> 100
O=C1CC(=O)n2cnc3cccc(c32)N1	–	> 100	–	> 100	–	> 100	> 100	> 100	> 100	> 100
C/C(=N\Nc1nc2cc(C(F)(F)F)ccc2s1)c1ccccn1	17.3	7.01	2.48	7.14	4.96	3.19	1.51	–	14.3	7.62
CC1=NN(C(=O)c2ccc(Cl)cc2)C(=O)/C1=C/c1ccccc1O	> 100	> 100	> 100	> 100	> 100	> 100	> 100	–	> 100	–
COc1ccc(/C(Cl)=C/c2cc(OC)ccc2OC)cc1	–	> 100	–	> 100	> 100	> 100	> 100	–	> 100	–
COc1cc2cc(C(=O)N3CC(COS(C)(=O)=O)c4ccc(O)cc43)[nH]c2c(OC)c1OC (stereo not drawn)	14	0.00194	–	–	< 0.0001	–	0.0165	–	< 0.0001	0.000212
O=C(O)c1ccccc1N=Cc1ccc(N(CCCl)CCCl)cc1	–	> 100	> 100	–	> 100	> 100	> 100	–	> 100	–
Cc1cc(OC(=O)NCn2cc(-c3ccccc3)nn2)ccc1Cl	> 100	> 100	> 100	> 100	> 100	> 100	> 100	> 100	> 100	–
CN=C(/N=c1\ssc(=NC)n1C)N(C)C	> 100	> 100	> 100	> 100	> 100	> 100	> 100	–	> 100	–
O=C1C=CC(=O)c2c(O)c(NCCOCCO)c(Cl)c(O)c21	26.6	4.8	16.7	23.5	3.69	–	23	–	15	–
Cn1c(-c2ccc(/C=N/NC(=S)N/N=C/c3ccc(-c4c[n+]5ccsc5n4C)cc3)cc2)c[n+]2ccsc12	> 100	> 100	–	> 100	> 100	> 100	> 100	> 100	> 100	> 100
Cc1ccccc1-c1nc2c(C(=O)NCCN(C)C)cccc2[nH]1	–	51.9	> 100	–	> 100	> 100	> 100	–	> 100	–
Cn1c(=O)oc2nc(-c3ccccc3)cc(C(F)(F)F)c21	> 100	> 100	–	> 100	> 100	> 100	> 100	> 100	> 100	> 100
Cc1ccc(S(=O)(=O)Nc2nnc(S(N)(=O)=O)s2)cc1	> 100	> 100	> 100	> 100	> 100	> 100	> 100	–	–	> 100
COc1cccc(N[C@@H]2c3cc4c(cc3C(c3cc(OC)c(O)c(OC)c3)[C@H]3C(=O)OCC32)OCO4)c1 (stereo partly drawn)	–	7.39	10.3	–	8.02	12.8	–	–	2.52	–
CCN(CC)C(=S)SS(=O)(=O)c1cccc(N)c1	> 100	> 100	> 100	> 100	> 100	> 100	> 100	–	> 100	> 100
Nc1nc(Cl)cc(NC23CC4CC(CC(C4)C2)C3)n1	–	> 100	–	> 100	> 100	> 100	> 100	> 100	> 100	> 100
